The record followed here is patent publication US20250120989A1, “BRIDGED TRICYCLIC CARBAMOYLPYRIDONE COMPOUNDS AND USES THEREOF” (priority 2023, published 2025).

≈ marks a conversion by molar mass, not a printed value. Like-named read-outs stand apart in the source and are kept apart here.

In data set [1] the test system is HIV-1 (IIIB). Put plainly: microbe, parasite or virus in culture. Format: cell-based. The note with it: read-out: MT4 EC50.
The nature of data set [2]: in vitro. The note with it: human; for CC50 at 5 days: uninfected MT-4 cells.
Data set [3] is described as follows: physchem. The note with it: 23 °C, thermodynamic from solid; for solubility thermodynamic at 24 h: FaSSIF.
The mark [4] stands for this setting: Human immunodeficiency virus 1, MT4, 120 h, HIV-1 (IIIB) replication in MT-4 cells, 5 days, Cell Titer Glo.

Take `CC1=NO[C@@]2(CC[C@H](C)N3C[C@H]2n2cc(C(=O)NCc4ccc(F)cc4F)c(=O)c(OCOC(=O)OCCOP(=O)(O)O)c2C3=O)C1` [Compound 4, (((3′S,5S,7′R)-10′-((2,4-difluorobenzyl)carbamoyl)-3,3′-dimethyl-1′,11′-dioxo-1′,4′,5′,11′-tetrahydro-3′H,4H,7′H-spiro[isoxazole-5,6′-[2,7]methanopyrido[1,2-a][1,4]diazonin]-12′-yl)oxy)methyl (2-(phosphonooxy)ethyl) carbonate]: the EC50 in data set [1] (setting [4]) came to 0.00095 µM. The same compound showed a CC50 at 5 days in data set [2] of 11.6 µM. The thermodynamic solubility at 24 h in data set [3] was 4300 µg/mL (≈ 6.28 mM). For `CC1=NO[C@@]2(CC[C@H](C)N3C[C@H]2n2cc(C(=O)NCc4ccc(F)cc4F)c(=O)c(OC(=O)OCCOP(=O)(O)O)c2C3=O)C1` [Compound 6, (3′S,5S,7′R)-10′-((2,4-difluorobenzyl)carbamoyl)-3,3′-dimethyl-1′,11′-dioxo-1′,4′,5′,11′-tetrahydro-3′H,4H,7′H-spiro[isoxazole-5,6′-[2,7]methanopyrido[1,2-a][1,4]diazonin]-12′-yl (2-(phosphonooxy)ethyl) carbonate], the EC50 in data set [1] (Human immunodeficiency virus 1, IIIB, MT4, 120 h) was found to be 0.00209 µM. The CC50 in data set [2] was 15.2 µM.

In the case of `CC1=NO[C@@]2(CC[C@H](C)N3C[C@H]2n2cc(C(=O)NCc4ccc(F)cc4F)c(=O)c(OCOC(=O)OCC[N+](C)(C)C)c2C3=O)C1` [Compound 15, 2-((((((3′S,5S,7′R)-10′-((2,4-difluorobenzyl)carbamoyl)-3,3′-dimethyl-1′,11′-dioxo-1′,4′,5′,11′-tetrahydro-3′H,4H,7′H-spiro[isoxazole-5,6′-[2,7]methanopyrido[1,2-a][1,4]diazonin]-12′-yl)oxy)methoxy)carbonyl)oxy)-N,N,Ntrimethylethan-1-aminium trifluoroacetic acid], the CC50 at 5 days in data set [2] stood at 17.3 µM. Moreover, the solubility (thermodynamic) at 24 h in data set [3] worked out at 4370 µg/mL. The like results for `CC1=NO[C@@]2(CC[C@H](C)N3C[C@H]2n2cc(C(=O)NCc4ccc(F)cc4F)c(=O)c(OC(=O)OCC[N+](C)(C)C)c2C3=O)C1` [Compound 16, 2-(((((3′S,5S,7′R)-10′-((2,4-difluorobenzyl)carbamoyl)-3,3′-dimethyl-1′,11′-dioxo-1′,4′,5′,11′-tetrahydro-3′H,4H,7′H-spiro[isoxazole-5,6′-[2,7]methanopyrido[1,2-a][1,4]diazonin]-12′-yl)oxy)carbonyl)oxy)-N,N,N-trimethylethan-1-aminium trifluoroacetic acid] were, in that order, 14.1 µM and 2230 µg/mL.

In the case of `CC1=NO[C@@]2(CC[C@H](C)N3C[C@H]2n2cc(C(=O)NCc4ccc(F)cc4F)c(=O)c(OCOC(=O)O[C@H](C)COP(=O)(O)O)c2C3=O)C1` [Compound 18, (((3′S,5S,7′R)-10′-((2,4-difluorobenzyl)carbamoyl)-3,3′-dimethyl-1′,11′-dioxo-1′,4′,5′,11′-tetrahydro-3′H,4H,7′H-spiro[isoxazole-5,6′-[2,7]methanopyrido[1,2-a][1,4]diazonin]-12′-yl)oxy)methyl ((R)-1-(phosphonooxy)propan-2-yl) carbonate], in data set [1] (setting [4]), the half-maximal effective concentration (EC50) turned out to be 0.00227 µM. Moreover, the CC50 at 5 days in data set [2] stood at 12.1 µM.

Regarding `CC1=NO[C@@]2(CC[C@H](C)N3C[C@H]2n2cc(C(=O)NCc4ccc(F)cc4F)c(=O)c(OCOC(=O)CCCCOP(=O)(O)O)c2C3=O)C1` [Compound 20, (((3′S,5S,7′R)-10′-((2,4-difluorobenzyl)carbamoyl)-3,3′-dimethyl-1′,11′-dioxo-1′,4′,5′,11′-tetrahydro-3′H,4H,7′H-spiro[isoxazole-5,6′-[2,7]methanopyrido[1,2-a][1,4]diazonin]-12′-yl)oxy)methyl 5-(phosphonooxy)pentanoate], the EC50 in data set [1] (setting [4]) came to 0.00237 µM. The CC50 at 5 days in data set [2] came out at 20.4 µM. In the same order, the values of `CC1=NO[C@@]2(CC[C@H](C)N3C[C@H]2n2cc(C(=O)NCc4ccc(F)cc4F)c(=O)c(OCOC(=O)O[C@@H](C)C[C@H](C)OP(=O)(O)O)c2C3=O)C1` [Compound 30, (((3′S,5S,7′R)-10′-((2,4-difluorobenzyl)carbamoyl)-3,3′-dimethyl-1′,11′-dioxo-1′,4′,5′,11′-tetrahydro-3′H,4H,7′H-spiro[isoxazole-5,6′-[2,7]methanopyrido[1,2-a][1,4]diazonin]-12′-yl)oxy)methyl ((2S,4S)-4-(phosphonooxy)pentan-2-yl) carbonate] are 0.00272 µM and 10.3 µM. In data set [2], `CC1=NO[C@@]2(CC[C@H](C)N3C[C@H]2n2cc(C(=O)NCc4ccc(F)cc4F)c(=O)c(OCOC(=O)OCCCCOP(=O)(O)O)c2C3=O)C1` [Compound 34, (((3′S,5S,7′R)-10′-((2,4-difluorobenzyl)carbamoyl)-3,3′-dimethyl-1′,11′-dioxo-1′,4′,5′,11′-tetrahydro-3′H,4H,7′H-spiro[isoxazole-5,6′-[2,7]methanopyrido[1,2-a][1,4]diazonin]-12′-yl)oxy)methyl (4-(phosphonooxy)butyl) carbonate] displayed a CC50 of 50 µM. In data set [3] (fassif), this compound displayed a thermodynamic solubility of 4890 µg/mL (≈ 6.86 mM). Regarding `CC1=NO[C@@]2(CC[C@H](C)N3C[C@H]2n2cc(C(=O)NCc4ccc(F)cc4F)c(=O)c(OCOC(=O)C4(CCN(CC(=O)O)C(=O)OCOP(=O)(O)O)CC4)c2C3=O)C1` [Compound 44, N-(2-(1-(((((3′S,5S,7′R)-10′-((2,4-difluorobenzyl)carbamoyl)-3,3′-dimethyl-1′,11′-dioxo-1′,4′,5′,11′-tetrahydro-3′H,4H,7′H-spiro[isoxazole-5,6′-[2,7]methanopyrido[1,2-a][1,4]diazonin]-12′-yl)oxy)methoxy)carbonyl)cyclopropyl)ethyl)-N-(((phosphonooxy)methoxy)carbonyl)glycine], the EC50 in data set [1] (setting [4]) came out at 0.00141 µM. The compound also showed a CC50 at 5 days in data set [2] of 11.1 µM. Turning to `CC1=NO[C@@]2(CC[C@H](C)N3C[C@H]2n2cc(C(=O)NCc4ccc(F)cc4F)c(=O)c(OCOC(=O)N(CCOP(=O)(O)O)CC(=O)O)c2C3=O)C1` [Compound 46, N-(((((3′S,5S,7′R)-10′-((2,4-difluorobenzyl)carbamoyl)-3,3′-dimethyl-1′,11′-dioxo-1′,4′,5′,11′-tetrahydro-3′H,4H,7′H-spiro[isoxazole-5,6′-[2,7]methanopyrido[1,2-a][1,4]diazonin]-12′-yl)oxy)methoxy)carbonyl)-N-(2-(phosphonooxy)ethyl)glycine], in data set [2], the CC50 at 5 days came to 50 µM. The same compound gave a thermodynamic solubility at 24 h in data set [3] of 4980 µg/mL (≈ 6.72 mM). In the case of `COC1=NO[C@@]2(CC[C@H](C)N3C[C@H]2n2cc(C(=O)NCc4ccc(F)cc4F)c(=O)c(OCOC(=O)OC[C@@H](C)OP(=O)(O)O)c2C3=O)C1` [Compound 53, (((3′S,5S,7′R)-10′-((2,4-difluorobenzyl)carbamoyl)-3-methoxy-3′-methyl-1′,11′-dioxo-1′,4′,5′,11′-tetrahydro-3′H,4H,7′H-spiro[isoxazole-5,6′-[2,7]methanopyrido[1,2-a][1,4]diazonin]-12′-yl)oxy)methyl ((R)-2-(phosphonooxy)propyl) carbonate], the EC50 in data set [1] (setting [4]) turned out to be 0.00196 µM. Besides, the CC50 at 5 days in data set [2] was 15.2 µM. Consider `CC1=NO[C@@]2(CC[C@H](C)N3C[C@H]2n2cc(C(=O)NCc4ccc(F)cc4F)c(=O)c(OCOC(=O)OC(C)(C)C(C)OP(=O)(O)O)c2C3=O)C1` (stereo partly drawn) [Compound 55, (((3′S,5S,7′R)-10′-((2,4-difluorobenzyl)carbamoyl)-3,3′-dimethyl-1′,11′-dioxo-1′,4′,5′,11′-tetrahydro-3′H,4H,7′H-spiro[isoxazole-5,6′-[2,7]methanopyrido[1,2-a][1,4]diazonin]-12′-yl)oxy)methyl (2-methyl-3-(phosphonooxy)butan-2-yl) carbonate], for which, in data set [3], the solubility (thermodynamic) at 24 h is 4600 µg/mL (≈ 6.33 mM). The same measure, in the same setting: for `CC1=NO[C@@]2(CC[C@H](C)N3C[C@H]2n2cc(C(=O)NCc4ccc(F)cc4F)c(=O)c(OCOC(=O)OC(C)C(C)(C)OP(=O)(O)O)c2C3=O)C1` (stereo partly drawn) [Compound 56, (((3′S,5S,7′R)-10′-((2,4-difluorobenzyl)carbamoyl)-3,3′-dimethyl-1′,11′-dioxo-1′,4′,5′,11′-tetrahydro-3′H,4H,7′H-spiro[isoxazole-5,6′-[2,7]methanopyrido[1,2-a][1,4]diazonin]-12′-yl)oxy)methyl (3-methyl-3-(phosphonooxy)butan-2-yl) carbonate] the value was 4240 µg/mL (≈ 5.84 mM).

In the case of `CC1=NO[C@@]2(CC[C@H](C)N3C[C@H]2n2cc(C(=O)NCc4ccc(F)cc4F)c(=O)c(OCOC(=O)OC[C@@H](C)COP(=O)(O)O)c2C3=O)C1` [Compound 70, (((3′S,5S,7′R)-10′-((2,4-difluorobenzyl)carbamoyl)-3,3′-dimethyl-1′,11′-dioxo-1′,4′,5′,11′-tetrahydro-3′H,4H,7′H-spiro[isoxazole-5,6′-[2,7]methanopyrido[1,2-a][1,4]diazonin]-12′-yl)oxy)methyl ((R)-2-methyl-3-(phosphonooxy)propyl) carbonate], in data set [1] (setting [4]), the EC50 was found to be 0.00286 µM. Also, in data set [2], the CC50 at 5 days was 15.3 µM. Regarding `COC1=NO[C@@]2(CC[C@H](C)N3C[C@H]2n2cc(C(=O)NCc4ccc(F)cc4F)c(=O)c(OCOC(=O)OC[C@@H](C)COP(=O)(O)O)c2C3=O)C1` [Compound 71, (((3′S,5S,7′R)-10′-((2,4-difluorobenzyl)carbamoyl)-3-methoxy-3′-methyl-1′,11′-dioxo-1′,4′,5′,11′-tetrahydro-3′H,4H,7′H-spiro[isoxazole-5,6′-[2,7]methanopyrido[1,2-a][1,4]diazonin]-12′-yl)oxy)methyl ((R)-2-methyl-3-(phosphonooxy)propyl) carbonate], the EC50 in data set [1] (setting [4]) was 0.00504 µM. In data set [2], this compound yielded a CC50 at 5 days of 21.3 µM.
